Read-outs that look alike come from different tables or passages of the source.

This note sets out measurements from US12421254B2, “KRAS modulators and uses thereof” (Quanta Therapeutics, Inc., priority 2023, dated 2025).

The target in one experiment is T1, KRAS G12D/RAF1 (Homo sapiens, UniProt P01116, G12D).
T1 construct: KRAS (1-169) proteins were expressed in BL21 (DE3)-CodonPlus E. coli; His6-MBP (N, cleaved yes)
The experiment in a line: Protein-protein interaction (PPI) HTRF assay KRAS G12D/RAF1. Particulars: Table 2. The class given is binding. The method, then: (§1) When RAS proteins are in the active GTP-bound conformation, they bind the effector protein RAF1 at the N-terminus Ras-binding domain (RBD, residues 52-131) (Tran, et al., 2021). Homogenous time resolved fluorescence (HTRF) was used to monitor the interaction between wt or mutant KRAS and RAF1 or wt NRAS and RAF1. Compounds were assayed in the presence of KRAS G12D/V and RAF1 versus wt KRAS to assess activity against mutant and w.t. KRAS. Similarly, compounds were then assayed in the presence of w.t. NRAS and RAF1 to assess RAS isoform selectivity. In all assay formats, His-tagged RAF1 protein was incubated with the HTRF donor, anti-6His Tb Cryptate gold (Cisbio 61DB10RDF), and biotinylated RAS proteins were incubated with the HTRF acceptor, streptavidin-d2 (CisBio 610SADLA). The intensity of the fluorescence signal emitted is proportional to binding between the two proteins. The donor solution was prepared by mixing 16 nM His-tagged RAF1 in protein dilution buffer with 1:100 anti-6His Tb cryptate in PPI-Terbium detection buffer. 16 nM biotinylated RAS protein was diluted into protein dilution buffer (50 mM Tris-HCl pH 7.5, 150 mM NaCl, 0.1 mM MgCl2, 1 mM TCEP, 0.005% Tween20) and mixed with 1:2000 Streptavidin-d2 diluted in PPI-Terbium detection buffer (CisBio 61DB10RDF). 50× compound in DMSO was mixed with 16 nM KRAS-acceptor solution and incubated for 30 minutes at room temperature. After compound pre-incubation with KRAS, the RAF1 donor solution was added to the KRAS-acceptor solution and incubated for 1 hour at room temperature. The fluorescence signal emitted was monitored at 665 nm and 615 nm using an Envision multimode plate reader. The HTRF ratio (665/615) was calculated and normalized to 0% inhibition in the absence of compound and 100% inhibition in the presence of untagged RAF1 protein. PPI KRAS G12D/RAF1, KRAS G12V/RAF1, w.t. KRAS/RAF1 and NRAS/RAF1 IC50 (uM) values of selected compounds are depicted in Table 3 and Table 4 with compounds having a value <0.1 uM as ++++; ≥0.1 uM to 1 uM as +++; ≥1 uM to 10 uM as ++; ≥10 uM to 100 uM as +; and ≥100 uM as NA.
For orientation: Time-resolved FRET reads energy transfer from a long-lived donor to a nearby acceptor.

Experiment [1] concerns the target GST-tagged KRAS-G12V (2-169) (Homo sapiens, UniProt P01116, G12V). The experiment can be described thus: Nucleotide exchange assay (NEA), SOS-mediated, HTRF, KRAS G12V. The class given is biochemical. Particulars: Table 4; IC50 extracted at 90 min; 80 nM SOS. Summed up: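 GST-KRAS-G12V (2-169), 0.25 nM, pre-incubated 1 h at RT with compound, then SOS1cat (564-1049) 80 nM and GTP-DY-647P1 150 nM added in HEPES pH 7.3 buffer with MgCl2 and DTT. HTRF via anti-GST Tb cryptate read over 90 min; IC50 from 4-parameter fit at 90 min, blanked to no-SOS reactions.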

The subject of experiment [2] is phospho-ERK in GP2D (KRAS-G12D) cells. The experiment in a line: pERK In Cell Western (ICW) assay (Method B), GP2D. The conditions noted are these: GP2d, 3 h, Table 4. The class given is cell-based. Summed up: (§2)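 Cells were seeded at 5,000/well (AGS) or 10,000/well (GP2D, SW620), grown overnight, then treated 3 h at 37 °C with a ½-log 9-point compound dilution. Fixed cells were stained for phospho-ERK with DRAQ5 as DNA counterstain; pERK/DRAQ5 ratio as percent of blank control gave IC50 by 4-parameter fit.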

The next experiment concerns phospho-ERK in AGS cells. The experiment in a line: pERK In Cell Western (ICW) assay (Method B), AGS. The class given is cell-based. Particulars: Homo sapiens, Table 2, 3 hours. The method, then: pERK ICW is a high throughput screening assay to evaluate the cellular potency of mutant KRAS small molecule inhibitors. KRAS mutant cell lines AGS, GP2D (KRAS-G12D) as well as SW620 (KRAS-G12V) were purchased from ATCC and maintained respectively in RPMI/DMEM/RPMI medium supplemented with 10% fetal bovine serum.
Cells grown in exponential phase were trypsinized, resuspended in fresh media, and viable cells were counted using a cell counter with Trypan Blue (BioRad TC20). Cells were seeded into 384-well plate (Greiner 781091) at density of 5,000 cells/well for AGS and 10,000 cells/well for GP2D/SW620 and allowed to grow overnight in a 37° C. CO2 incubator. The next day, compounds were dispensed into wells with a ½ log, 9-point serial dilution using a Tecan D300e dispenser and incubated for 3 hours in a 37° C. CO2 incubator. Cells were then fixed with paraformaldehyde (Electron Microscopy Sciences, 15710, 4% final concentration) for 30 min, permeabilized with wash buffer (1×PBS+0.1% Triton X-100) for 30 min and blocked with Odyssey blocking buffer (Li—COR 927-70001) for 1 hour, all at room temperature (RT). Phospho-ERK antibody (CST 4370L) was diluted 1:500 in Odyssey T20 (PBS) antibody diluent (Li—COR 927-75001) and incubated with cells overnight at 4° C. The next day, plates were washed 5× with wash buffer, incubated with IRDye 800 CW, Goat anti-Rabbit secondary antibody (Li—COR 926-32211, 1:800) and DRAQ5 (CST 4084L, 1:5,000) diluted in Odyssey T20 (PBS) antibody diluent for 1 hour, washed 5×, and imaged on an Odyssey CLx imaging system.
For data analysis, signal intensities from 800 (phosphor-ERK) and 700 (DRAQ5) channels were extracted, and phospho-ERK signals were normalized to DRAQ5 signals for each well and percent of blank control values were computed. Data were then imported into Graphpad Prism to compute half-maximal inhibitory concentrations (IC50) using a 4-parameter variable slope model. Z-factor for each plate was computed from signals derived from wells treated with either DMSO or 5 μM of control compound. AGS pERK ICW (Method B) IC50 (uM) values of selected compounds are depicted in Table 2 with compounds having a value ≥0.001 uM to 0.01 uM as ++++; ≥0.01 uM to 0.1 uM as +++; ≥0.1 uM to 1 uM as ++; ≥1 uM to 10 uM as + and ≥10 uM as NA.

A further experiment has as its target T2, KRAS G12V/RAF1 (Homo sapiens, UniProt P01116, G12V).
T2 construct: KRAS (1-169) proteins were expressed in BL21 (DE3)-CodonPlus E. coli; His6-MBP (N, cleaved yes)
The experiment can be described thus: Protein-protein interaction (PPI) HTRF assay KRAS G12V/RAF1. It is filed as binding. Particulars: Table 3. The method, then: as §1

For experiment [3], the target named is GST-tagged KRAS-G12D (2-169) (Homo sapiens, UniProt P01116, G12D). The experiment can be described thus: Nucleotide exchange assay (NEA), SOS-mediated, HTRF, KRAS G12D. It is filed as biochemical. Particulars: IC50 extracted at 30 min, 20 nM SOScat. In a few lines: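 Compound preincubated 1 h at RT with 0.25 nM GST-KRAS-G12D (2-169) and anti-GST Tb donor, then 20 nM SOS1cat (564-1049) and 150 nM GTP-DY-647P1 added; pH 7.3 HEPES buffer with MgCl2 and DTT. HTRF monitored at RT; % inhibition versus DMSO and no-SOS blank, 4-parameter IC50 taken at 30 min.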

Experiment [4] relates to phospho-ERK in SW620 (KRAS-G12V) cells. The experiment can be described thus: pERK In Cell Western (ICW) assay (Method B), SW620. Particulars: Homo sapiens, SW-620, 3 h, Table 4. The class given is cell-based. In a few lines: as §2
Where [5] appears, read: Table 2, read-out: NEA-G12D (uM) IC50.
Setting [6] is: Table 4, read-out: NEA G12D IC50.

T2 sequence (P01116 with tags, fused parts or gaps isoform P01116-2 G12V): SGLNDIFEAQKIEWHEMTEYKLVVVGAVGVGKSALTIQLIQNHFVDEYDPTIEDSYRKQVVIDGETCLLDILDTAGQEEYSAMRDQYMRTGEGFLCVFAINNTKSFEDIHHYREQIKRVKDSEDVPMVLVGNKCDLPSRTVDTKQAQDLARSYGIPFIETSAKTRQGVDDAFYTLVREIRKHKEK
T1 sequence (P01116 with tags, fused parts or gaps isoform P01116-2 G12D): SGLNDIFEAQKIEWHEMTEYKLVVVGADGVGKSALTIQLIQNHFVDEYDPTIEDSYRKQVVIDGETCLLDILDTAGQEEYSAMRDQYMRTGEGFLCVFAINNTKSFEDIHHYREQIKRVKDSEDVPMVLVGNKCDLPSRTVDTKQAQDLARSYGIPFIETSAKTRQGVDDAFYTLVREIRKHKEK
GST-tagged KRAS-G12V (2-169), sequence (P01116 2-169 isoform P01116-2 G12V): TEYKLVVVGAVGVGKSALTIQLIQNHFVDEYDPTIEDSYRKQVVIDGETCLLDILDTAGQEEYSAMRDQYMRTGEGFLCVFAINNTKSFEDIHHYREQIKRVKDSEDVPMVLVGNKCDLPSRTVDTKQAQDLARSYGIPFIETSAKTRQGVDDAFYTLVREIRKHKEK
GST-tagged KRAS-G12D (2-169), sequence (P01116 2-169 isoform P01116-2 G12D): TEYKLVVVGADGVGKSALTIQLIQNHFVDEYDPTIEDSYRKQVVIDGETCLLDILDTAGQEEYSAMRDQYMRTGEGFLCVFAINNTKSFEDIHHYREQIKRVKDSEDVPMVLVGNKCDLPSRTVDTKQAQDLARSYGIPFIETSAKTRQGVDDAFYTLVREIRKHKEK

As a reminder, the IC50 is the point on the concentration scale where inhibition reaches its midpoint. For `N#Cc1c(N)sc2c1C1(CC2)CN(c2nc(OC[C@@]34CCCN3C[C@H](F)C4)nc(N3CCC[C@@H](CO)C3)n2)C1` [Compound 20, 2-amino-1′-[4-[[(2R,8S)-2-fluoro-1,2,3,5,6,7-hexahydropyrrolizin-8-yl]methoxy]-6-[(3R)-3-(hydroxymethyl)-1-piperidyl]-1,3,5-triazin-2-yl]spiro[5,6-dihydrocyclopenta[b]thiophene-4,3′-azetidine]-3-carbonitrile], the IC50 at KRAS G12D/RAF1 was in the range of 10 to 100 µM; in experiment [1] it was 10 to 100 nM; in experiment [2], 1000 to 20000 nM; in the experiment on phospho-ERK in AGS cells it was 1 to 10 µM; against KRAS G12V/RAF1 it was 10 to 100 µM; in experiment [3] (setting [5]), 0.01 to 0.1 µM. Besides, in experiment [3] (setting [6]), the half-inhibitory concentration (IC50) is 0.01 to 0.1 µM.

As for `CC(C#N)COc1nc(OC[C@@]23CCCN2C[C@H](F)C3)nc(N2CC3(CCc4sc(N)c(C#N)c43)C2)n1` (stereo partly drawn) [Compound 17, 2-amino-1′-[4-(2-cyanopropoxy)-6-[[(2R,8S)-2-fluoro-1,2,3,5,6,7-hexahydropyrrolizin-8-yl]methoxy]-1,3,5-triazin-2-yl]spiro[5,6-dihydrocyclopenta[b]thiophene-4,3′-azetidine]-3-carbonitrile], the IC50 at KRAS G12D/RAF1 was 10 to 100 µM; in experiment [1] it was 10 to 100 nM; on KRAS G12V/RAF1, 10 to 100 µM; in experiment [3] (setting [5]) it was 0.1 to 1 µM; in experiment [3] (setting [6]), 0.1 to 1 µM.

In the case of `N#Cc1c(N)sc2c1C1(CC2)CCN(c2nc(OC[C@@]34CCCN3C[C@H](F)C4)nc(N3CCCC(C#N)CC3)n2)C1` (stereo partly drawn) [Compound 12, 2-amino-1′-[4-(4-cyanoazepan-1-yl)-6-[[(2R,8S)-2-fluoro-1,2,3,5,6,7-hexahydropyrrolizin-8-yl]methoxy]-1,3,5-triazin-2-yl]spiro[5,6-dihydrocyclopenta[b]thiophene-4,3′-pyrrolidine]-3-carbonitrile], the IC50 at KRAS G12D/RAF1 lay in the range of 10 to 100 µM; in experiment [1], 100 to 1000 nM; on KRAS G12V/RAF1, 10 to 100 µM; in experiment [3] (setting [5]), 0.1 to 1 µM; in experiment [3] (setting [6]), 0.1 to 1 µM.

Take `N#Cc1c(N)sc2c1C1(CC2)CCN(c2nc(OCC3(CN4CCOCC4)CC3)nc(N3C[C@H]4CC[C@@H](C3)N4)n2)C1` (stereo partly drawn) [Compound 9, 2-amino-1′-[4-[(1R,5S)-3,8-diazabicyclo[3.2.1]octan-3-yl]-6-[[1-(morpholinomethyl)cyclopropyl]methoxy]-1,3,5-triazin-2-yl]spiro[5,6-dihydrocyclopenta[b]thiophene-4,3′-pyrrolidine]-3-carbonitrile]: the IC50 at KRAS G12D/RAF1 was 1 to 10 µM; in experiment [1] it was 1000 to 20000 nM; in experiment [2], 10 to 100 nM; with phospho-ERK in AGS cells, 0.1 to 1 µM; against KRAS G12V/RAF1, 10 to 100 µM; in experiment [3] (setting [5]), less than 0.01 µM. In addition, in experiment [3] (setting [6]), the IC50 is less than 0.01 µM.

Consider `CC(c1cccnc1N)N(CCC#N)c1nc(OC[C@@]23CCCN2C[C@H](F)C3)nc(N2CC3(CCc4sc(N)c(C#N)c43)C2)n1` (stereo partly drawn) [Compound 118, 2-amino-1′-[4-[1-(2-amino-3-pyridyl)ethyl-(2-cyanoethyl)amino]-6-[[(2R,8S)-2-fluoro-1,2,3,5,6,7-hexahydropyrrolizin-8-yl]methoxy]-1,3,5-triazin-2-yl]spiro[5,6-dihydrocyclopenta[b]thiophene-4,3′-azetidine]-3-carbonitrile], for which the IC50 in experiment [1] is less than 10 nM; in experiment [4], less than 10 nM; in experiment [2], less than 10 nM; in experiment [3] (setting [6]), less than 0.01 µM.

In the case of `C[C@H](c1cccnc1N)N(CCF)c1nc(OC[C@@]23CCCN2C[C@H](F)C3)nc(N2CC3(C2)SCc2sc(N)c(C#N)c23)n1` [Compound 180, 2′-amino-1-(4-(((R)-1-(2-aminopyridin-3-yl)ethyl)(2-fluoroethyl)amino)-6-(((2R,7aS)-2-fluorotetrahydro-1H-pyrrolizin-7a(5H)-yl)methoxy)-1,3,5-triazin-2-yl)-6′H-spiro[azetidine-3,4′-thieno[3,4-b]thiophene]-3′-carbonitrile], the IC50 in experiment [1] was less than 10 nM; in experiment [4], less than 10 nM; in experiment [2], less than 10 nM; in experiment [3] (setting [6]) it was less than 0.01 µM.

`C[C@H](c1cccnc1N)N(c1nc(OC[C@@]23CCCN2C[C@H](F)C3)nc(N2CC3(C2)SCc2sc(N)c(C#N)c23)n1)C1CC1` [Compound 264, 2-amino-1′-[4-[[(1R)-1-(2-amino-3-pyridyl)ethyl]-cyclopropyl-amino]-6-[[(2R,8S)-2-fluoro-1,2,3,5,6,7-hexahydropyrrolizin-8-yl]methoxy]-1,3,5-triazin-2-yl]spiro[6H-thieno[3,4-b]thiophene-4,3′-azetidine]-3-carbonitrile]: the 50% inhibitory concentration (IC50) in experiment [1] was less than 10 nM; in experiment [4], less than 10 nM; in experiment [2] it was 10 to 100 nM; in experiment [3] (setting [6]), less than 0.01 µM.
